Reference: US7964531B2, “3-phenoxy-4-pyridazinol derivatives and herbicidal composition containing the same” (Mitsui Chemicals Agro, Inc., priority 2001, dated 2011)

Columns and labels:
Assay type in all cases: in vivo
Details in all cases: wettable powder applied 3 days after transplanting, judged after 25 days
[1] = test system: barnyardgrass (Echinochloa oryzicola Vasing.); test: Test Example 1: herbicidal effects, paddy-field pot test
How it was run: (§1)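 Paddy-soil pots sown with weed seeds, germinated Cyperus serotinus tubers and 2.2-leaf rice transplants, kept flooded in a greenhouse. Wettable powder diluted in water applied at set dosage 3 days after transplanting. Weed control and rice injury scored 25 days later on a 0-5 growth-inhibition scale.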

[2] = test system: Cyperus serotinus; test: as above
How it was run: as §1

[3] = test system: Scirpus joncoides; test: as above
How it was run: as §1

[4] = test system: annual broad-leaved weeds (Lindernia spp., Rotala indica); test: as above
How it was run: as §1

[5] = test system: transplanted paddy-field rice; test: Test Example 1: crop injury against transplanted paddy-field rice
How it was run: as §1

| Structure (SMILES) | Herbicidal effects Barnyard grass ([1]; chemical dosage 12.5 g/a) | Herbicidal effects Barnyard grass ([1]; chemical dosage 25 g/a) | Herbicidal effects Cyperus serotinus ([2]; chemical dosage 12.5 g/a) | Herbicidal effects Cyperus serotinus ([2]; chemical dosage 25 g/a) | Herbicidal effects Scirpus joncoides ([3]; chemical dosage 12.5 g/a) | Herbicidal effects Scirpus joncoides ([3]; chemical dosage 25 g/a) | Herbicidal effects Broad leaf ([4]; chemical dosage 12.5 g/a) | Herbicidal effects Broad leaf ([4]; chemical dosage 25 g/a) | Crop injury against transplanted rice ([5]; chemical dosage 12.5 g/a) | Crop injury against transplanted rice ([5]; chemical dosage 25 g/a) | Herbicidal effects Barnyard grass ([1]; chemical dosage 10 g/a) | Herbicidal effects Barnyard grass ([1]; chemical dosage 20 g/a) | Herbicidal effects Cyperus serotinus ([2]; chemical dosage 10 g/a) | Herbicidal effects Cyperus serotinus ([2]; chemical dosage 20 g/a) | Herbicidal effects Scirpus joncoides ([3]; chemical dosage 10 g/a) | Herbicidal effects Scirpus joncoides ([3]; chemical dosage 20 g/a) | Herbicidal effects Broad leaf ([4]; chemical dosage 10 g/a) | Herbicidal effects Broad leaf ([4]; chemical dosage 20 g/a) | Crop injury against transplanted rice ([5]; chemical dosage 10 g/a) | Crop injury against transplanted rice ([5]; chemical dosage 20 g/a) |
| --- | --- | --- | --- | --- | --- | --- | --- | --- | --- | --- | --- | --- | --- | --- | --- | --- | --- | --- | --- | --- |
| CC(C)c1cccc(Cl)c1Oc1nnc(Cl)cc1O [Example 18] | 0 (Growth inhibition rate; 0 to 10%) | 1 (Growth inhibition rate; 11 to 30%) | 5 (Growth inhibition rate; 91 to 100%) | 5 (Growth inhibition rate; 91 to 100%) | 3 (Growth inhibition rate; 51 to 70%) | 4 (Growth inhibition rate; 71 to 90%) | 5 (Growth inhibition rate; 91 to 100%) | 5 (Growth inhibition rate; 91 to 100%) | 1 (Growth inhibition rate; 11 to 30%) | 2 (Growth inhibition rate; 31 to 50%) | – | – | – | – | – | – | – | – | – | – |
| O=S(=O)(Oc1cc(Cl)nnc1Oc1ccccc1C1CC1)C(F)(F)F [Example 26] | – | – | – | – | – | – | – | – | – | – | 4 (Growth inhibition rate; 71 to 90%) | 4 (Growth inhibition rate; 71 to 90%) | 5 (Growth inhibition rate; 91 to 100%) | 5 (Growth inhibition rate; 91 to 100%) | 5 (Growth inhibition rate; 91 to 100%) | 5 (Growth inhibition rate; 91 to 100%) | 5 (Growth inhibition rate; 91 to 100%) | 5 (Growth inhibition rate; 91 to 100%) | 0 (Growth inhibition rate; 0 to 10%) | 0 (Growth inhibition rate; 0 to 10%) |
| CCc1ccccc1Oc1nnc(Cl)cc1O [Example 55] | 2 (Growth inhibition rate; 31 to 50%) | 2 (Growth inhibition rate; 31 to 50%) | 5 (Growth inhibition rate; 91 to 100%) | 5 (Growth inhibition rate; 91 to 100%) | 3 (Growth inhibition rate; 51 to 70%) | 4 (Growth inhibition rate; 71 to 90%) | 5 (Growth inhibition rate; 91 to 100%) | 5 (Growth inhibition rate; 91 to 100%) | 0 (Growth inhibition rate; 0 to 10%) | 0 (Growth inhibition rate; 0 to 10%) | – | – | – | – | – | – | – | – | – | – |
| CCCS(=O)(=O)Oc1cc(Cl)nnc1Oc1cccc2c1CCC2 [Example 361] | – | – | – | – | – | – | – | – | – | – | 2 (Growth inhibition rate; 31 to 50%) | 3 (Growth inhibition rate; 51 to 70%) | 4 (Growth inhibition rate; 71 to 90%) | 5 (Growth inhibition rate; 91 to 100%) | 5 (Growth inhibition rate; 91 to 100%) | 5 (Growth inhibition rate; 91 to 100%) | 5 (Growth inhibition rate; 91 to 100%) | 5 (Growth inhibition rate; 91 to 100%) | 0 (Growth inhibition rate; 0 to 10%) | 0 (Growth inhibition rate; 0 to 10%) |
| Oc1cc(Cl)nnc1Oc1cccc2c1CCO2 [Example 181] | – | – | – | – | – | – | – | – | – | – | 1 (Growth inhibition rate; 11 to 30%) | 2 (Growth inhibition rate; 31 to 50%) | 4 (Growth inhibition rate; 71 to 90%) | 5 (Growth inhibition rate; 91 to 100%) | 3 (Growth inhibition rate; 51 to 70%) | 4 (Growth inhibition rate; 71 to 90%) | 5 (Growth inhibition rate; 91 to 100%) | 5 (Growth inhibition rate; 91 to 100%) | 0 (Growth inhibition rate; 0 to 10%) | 0 (Growth inhibition rate; 0 to 10%) |
| Cc1ccc2c(c1Oc1nnc(Cl)cc1O)OCC2 [Example 308] | – | – | – | – | – | – | – | – | – | – | 2 (Growth inhibition rate; 31 to 50%) | 4 (Growth inhibition rate; 71 to 90%) | 5 (Growth inhibition rate; 91 to 100%) | 5 (Growth inhibition rate; 91 to 100%) | 4 (Growth inhibition rate; 71 to 90%) | 5 (Growth inhibition rate; 91 to 100%) | 5 (Growth inhibition rate; 91 to 100%) | 5 (Growth inhibition rate; 91 to 100%) | 0 (Growth inhibition rate; 0 to 10%) | 0 (Growth inhibition rate; 0 to 10%) |
| Oc1cc(Cl)nnc1Oc1cccc2ccccc12 [Example 180] | 0 (Growth inhibition rate; 0 to 10%) | 0 (Growth inhibition rate; 0 to 10%) | 5 (Growth inhibition rate; 91 to 100%) | 5 (Growth inhibition rate; 91 to 100%) | 2 (Growth inhibition rate; 31 to 50%) | 3 (Growth inhibition rate; 51 to 70%) | 5 (Growth inhibition rate; 91 to 100%) | 5 (Growth inhibition rate; 91 to 100%) | 0 (Growth inhibition rate; 0 to 10%) | 0 (Growth inhibition rate; 0 to 10%) | – | – | – | – | – | – | – | – | – | – |
| Oc1cc(Cl)nnc1Oc1ccccc1OC(F)(F)F [Example 125] | – | – | – | – | – | – | – | – | – | – | 1 (Growth inhibition rate; 11 to 30%) | 2 (Growth inhibition rate; 31 to 50%) | 4 (Growth inhibition rate; 71 to 90%) | 5 (Growth inhibition rate; 91 to 100%) | 3 (Growth inhibition rate; 51 to 70%) | 4 (Growth inhibition rate; 71 to 90%) | 5 (Growth inhibition rate; 91 to 100%) | 5 (Growth inhibition rate; 91 to 100%) | 0 (Growth inhibition rate; 0 to 10%) | 0 (Growth inhibition rate; 0 to 10%) |
